# Test results from patent US10517889B2, “Modulators of SMAD7 expression” (Ionis Pharmaceuticals, Inc., priority 2017, dated 2019).
# Strand notation (5' to 3'): a small letter for the sugar, then the base; units joined by * are phosphorothioate-linked, units joined directly phosphodiester-linked; [ ] holds rarer units or linkages, { } end groups; capitals alone tell only the bases. k = constrained ethyl (cEt); [5mC] = 5-methylcytosine; d = 2'-deoxy (DNA)
# Tested on: human SMAD7 mRNA
# Test: Antisense inhibition of human SMAD7 mRNA expression in Hep3B cells by 3-10-3 cEt gapmers, 10,000 nM, electroporation (Example 2)
# Type: cell-based
# Conditions: Hep3B cells, electroporation with 10,000 nM antisense oligonucleotide, approximately 24 hours, RTS5062, percent inhibition of SMAD7 mRNA relative to untreated control cells
# Outline: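 Hep3B, 20,000 cells/well; electroporation, 10,000 nM ASO; ~24 h. Readout: SMAD7 mRNA by qRT-PCR (RTS5062), RIBOGREEN-normalised; % inhibition vs untreated.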
row,Substance,% Inhibition
1,799272 (antisense kA*kT*kT*dA*d[5mC]*dT*d[5mC]*dG*dA*dG*dT*d[5mC]*dA*kG*kG*k[5mC]) [compound 799272],55%
2,799273 (antisense kA*kT*k[5mC]*dA*dT*dT*dA*d[5mC]*dT*d[5mC]*dG*dA*dG*kT*k[5mC]*kA) [compound 799273],41%
3,799274 (antisense kT*kT*kA*dA*dT*d[5mC]*dA*dT*dT*dA*d[5mC]*dT*d[5mC]*kG*kA*kG) [compound 799274],24%
4,799275 (antisense k[5mC]*kA*kG*dT*dT*dA*dA*dT*d[5mC]*dA*dT*dT*dA*k[5mC]*kT*k[5mC]) [compound 799275],0%
5,799276 (antisense kG*kG*k[5mC]*dA*dG*d[5mC]*d[5mC]*dA*dG*dT*dT*dA*dA*kT*k[5mC]*kA) [compound 799276],29%
6,799277 (antisense k[5mC]*kT*k[5mC]*d[5mC]*dG*dG*dG*d[5mC]*dA*dG*d[5mC]*d[5mC]*dA*kG*kT*kT) [compound 799277],21%
7,799278 (antisense k[5mC]*k[5mC]*k[5mC]*dG*dT*d[5mC]*dT*dG*dG*dG*d[5mC]*dT*d[5mC]*k[5mC]*kG*kG) [compound 799278],14%
8,799279 (antisense kA*k[5mC]*k[5mC]*dT*dT*dG*dT*d[5mC]*dA*d[5mC]*d[5mC]*d[5mC]*dG*kT*k[5mC]*kT) [compound 799279],48%
9,799289 (antisense kT*kA*kT*dT*dA*dA*dT*dG*dG*dT*d[5mC]*dT*dG*k[5mC]*kT*k[5mC]) [compound 799289],61%
10,799290 (antisense kG*kA*kT*dT*dA*dT*dT*dA*dA*dT*dG*dG*dT*k[5mC]*kT*kG) [compound 799290],16%
11,799291 (antisense kG*k[5mC]*kT*dG*dA*dT*dT*dA*dT*dT*dA*dA*dT*kG*kG*kT) [compound 799291],0%
12,799292 (antisense kT*kG*kA*dT*dG*d[5mC]*dT*dG*dA*dT*dT*dA*dT*kT*kA*kA) [compound 799292],19%
13,799293 (antisense k[5mC]*k[5mC]*kT*dT*dG*dA*dT*dG*d[5mC]*dT*dG*dA*dT*kT*kA*kT) [compound 799293],5%
14,799294 (antisense k[5mC]*kG*k[5mC]*dG*dG*d[5mC]*d[5mC]*dT*dT*dG*dA*dT*dG*k[5mC]*kT*kG) [compound 799294],13%
15,799295 (antisense kG*kA*k[5mC]*dT*d[5mC]*dG*d[5mC]*dG*dG*d[5mC]*d[5mC]*dT*dT*kG*kA*kT) [compound 799295],30%
16,799296 (antisense kG*k[5mC]*kT*dG*dA*d[5mC]*dT*d[5mC]*dG*d[5mC]*dG*dG*d[5mC]*k[5mC]*kT*kT) [compound 799296],45%
17,799297 (antisense kA*kA*kA*dG*dG*d[5mC]*dT*dG*dA*d[5mC]*dT*d[5mC]*dG*k[5mC]*kG*kG) [compound 799297],62%
18,799298 (antisense k[5mC]*k[5mC]*kA*dA*dA*dA*dG*dG*d[5mC]*dT*dG*dA*d[5mC]*kT*k[5mC]*kG) [compound 799298],54%
19,799309 (antisense kG*k[5mC]*kA*d[5mC]*dG*d[5mC]*dT*d[5mC]*dT*dA*dA*dA*d[5mC]*kA*kG*k[5mC]) [compound 799309],42%
20,799310 (antisense kT*kA*kA*dG*d[5mC]*dA*d[5mC]*dG*d[5mC]*dT*d[5mC]*dT*dA*kA*kA*k[5mC]) [compound 799310],18%
21,799311 (antisense k[5mC]*kT*kT*dT*dA*dA*dG*d[5mC]*dA*d[5mC]*dG*d[5mC]*dT*k[5mC]*kT*kA) [compound 799311],27%
22,799313 (antisense kA*kT*k[5mC]*d[5mC]*dA*dT*d[5mC]*dT*dT*dT*dA*dA*dG*k[5mC]*kA*k[5mC]) [compound 799313],0%
23,799314 (antisense k[5mC]*kA*kA*dG*dA*dT*d[5mC]*d[5mC]*dA*dT*d[5mC]*dT*dT*kT*kA*kA) [compound 799314],0%
24,799315 (antisense k[5mC]*kA*k[5mC]*d[5mC]*dA*dA*dG*dA*dT*d[5mC]*d[5mC]*dA*dT*k[5mC]*kT*kT) [compound 799315],15%
25,799316 (antisense kA*kA*kA*d[5mC]*dA*d[5mC]*d[5mC]*dA*dA*dG*dA*dT*d[5mC]*k[5mC]*kA*kT) [compound 799316],0%
26,799317 (antisense kT*kA*kA*dA*dA*dA*d[5mC]*dA*d[5mC]*d[5mC]*dA*dA*dG*kA*kT*k[5mC]) [compound 799317],0%

# Same assay, conditions: Hep3B cells, electroporation, 10,000 nM antisense oligonucleotide, approximately 24 hours, RTS5062, relative to untreated control cells
row,Substance,% inhibition of SMAD7 mRNA expression
1,799270 (antisense kA*kG*kT*d[5mC]*dA*dG*dG*d[5mC]*dT*d[5mC]*dA*dA*dT*kG*kA*kG) [compound 799270],16%
2,799271 (antisense k[5mC]*kT*k[5mC]*dG*dA*dG*dT*d[5mC]*dA*dG*dG*d[5mC]*dT*k[5mC]*kA*kA) [compound 799271],60%
3,799280 (antisense kA*kG*k[5mC]*dA*d[5mC]*d[5mC]*dT*dT*dG*dT*d[5mC]*dA*d[5mC]*k[5mC]*k[5mC]*kG) [compound 799280],44%
4,799281 (antisense k[5mC]*kA*k[5mC]*dA*dG*d[5mC]*dA*d[5mC]*d[5mC]*dT*dT*dG*dT*k[5mC]*kA*k[5mC]) [compound 799281],25%
5,799282 (antisense kA*k[5mC]*kA*dG*dA*d[5mC]*d[5mC]*dA*d[5mC]*dA*dG*d[5mC]*dA*k[5mC]*k[5mC]*kT) [compound 799282],16%
6,799283 (antisense kA*kA*kG*dA*d[5mC]*dA*dG*dA*d[5mC]*d[5mC]*dA*d[5mC]*dA*kG*k[5mC]*kA) [compound 799283],34%
7,799284 (antisense k[5mC]*kG*kT*dA*dA*dG*dA*d[5mC]*dA*dG*dA*d[5mC]*d[5mC]*kA*k[5mC]*kA) [compound 799284],51%
8,799285 (antisense kG*kG*k[5mC]*dT*dT*d[5mC]*dA*d[5mC]*dT*dG*d[5mC]*d[5mC]*d[5mC]*kA*kT*k[5mC]) [compound 799285],36%
9,799286 (antisense kG*k[5mC]*kT*d[5mC]*dA*dG*dG*d[5mC]*dT*dT*d[5mC]*dA*d[5mC]*kT*kG*k[5mC]) [compound 799286],0%
10,799287 (antisense kT*k[5mC]*kT*dG*d[5mC]*dT*d[5mC]*dA*dG*dG*d[5mC]*dT*dT*k[5mC]*kA*k[5mC]) [compound 799287],15%
11,799288 (antisense kT*kA*kA*dT*dG*dG*dT*d[5mC]*dT*dG*d[5mC]*dT*d[5mC]*kA*kG*kG) [compound 799288],23%
12,799299 (antisense kA*kT*kT*d[5mC]*d[5mC]*dA*dA*dA*dA*dG*dG*d[5mC]*dT*kG*kA*k[5mC]) [compound 799299],42%
13,799300 (antisense k[5mC]*kA*k[5mC]*dA*dT*dT*d[5mC]*d[5mC]*dA*dA*dA*dA*dG*kG*k[5mC]*kT) [compound 799300],28%
14,799301 (antisense k[5mC]*k[5mC]*kA*d[5mC]*dA*d[5mC]*dA*dT*dT*d[5mC]*d[5mC]*dA*dA*kA*kA*kG) [compound 799301],37%
15,799302 (antisense kA*kA*kA*d[5mC]*d[5mC]*dA*d[5mC]*dA*d[5mC]*dA*dT*dT*d[5mC]*k[5mC]*kA*kA) [compound 799302],39%
16,799303 (antisense kG*kA*k[5mC]*dA*dA*dA*d[5mC]*d[5mC]*dA*d[5mC]*dA*d[5mC]*dA*kT*kT*k[5mC]) [compound 799303],73%
17,799304 (antisense kG*kA*kA*dA*dG*dA*d[5mC]*dA*dA*dA*d[5mC]*d[5mC]*dA*k[5mC]*kA*k[5mC]) [compound 799304],54%
18,799305 (antisense k[5mC]*kA*kT*dG*dA*dA*dA*dG*dA*d[5mC]*dA*dA*dA*k[5mC]*k[5mC]*kA) [compound 799305],0%
19,799306 (antisense kA*kA*kA*d[5mC]*dA*dG*d[5mC]*dA*dT*dG*dA*dA*dA*kG*kA*k[5mC]) [compound 799306],27%
20,799307 (antisense kT*k[5mC]*kT*dA*dA*dA*d[5mC]*dA*dG*d[5mC]*dA*dT*dG*kA*kA*kA) [compound 799307],10%
21,799308 (antisense k[5mC]*kG*k[5mC]*dT*d[5mC]*dT*dA*dA*dA*d[5mC]*dA*dG*d[5mC]*kA*kT*kG) [compound 799308],47%
22,799319 (antisense kT*kG*k[5mC]*dT*dG*dT*dG*dG*dA*dT*dT*dT*dG*kA*kA*kA) [compound 799319],0%
